Measurements taken from patent US20050267067A1, “Radical reaction inhibitors, method for inhibition of radical reactions, and use thereof” (priority 2002, published 2005).

What was measured:
[1] = system: calf serum albumin (BSA); assay: Modification of BSA by lipid peroxides (protein carbonyl, OLAARPs); type: biochemical; conditions: for OLAARPs Formation: (%) / Protein carbonyl Formation: (%): BSA, versus no saccharide; for Formed OLAARPs / Formed Protein carbonyl: 37° C., 24 hours
Protocol: In this experiment, saccharide solutions were prepared to give an equal total saccharide molar concentration in each solution.
As a negative control, PBS was used.
To five milliliters of either of the above saccharide solutions for testing or the negative control was added 10 mg of calf serum albumin (BSA) or L-lysine, followed by dissolving. To each of the resulting solutions was added 25 μg of 2,4-decadienal or malondialdehyde (MDA) as a lipid peroxide, followed by reaction at 37° C. for 24 hours. After completion of the reaction, protein carbonyl and reaction products of oxidized lipids/aminoacids (OLAARPs) formed as aldehyde adducts were quantified on the calorimetric method. […] The formation levels of protein carbonyl and OLAARPs were determined based on the absorbances obtained in this experiment, in terms of the molar absorbance coefficient for each molecule as disclosed in Biochim. Biophys.
To each of the resulting mixtures was added 600 μl of 30% trichloroacetic acid, and the mixture was allowed to stand at 0° C. for one hour and centrifuged at 10,000 rpm for 15 min to obtain a precipitate, followed by washing the resulting precipitate four times with two milliliters of ethanol/ethylacetate (1:1), respectively, adding 1.5 ml of 6M-guanidine hydrochloride/20 mM-NaPi/TFA (pH 2.3) to the resultant, allowing the mixture to stand at 37° C. for 30 min, and measuring the absorbance of the resulting mixture at a wavelength of 580 nm, ε=35,000 M^−1 cm^−1.

[2] = Preservation of vitamin D3 tablets at 60° C., absorbance at 265 nm; type: physicochemical; conditions: for Amount of vitamin D3: per one gram of vitamin D3 tablet
Protocol: Vitamin D3 (cholecalciferol), as vitamin D, commercialized by Wako Pure Chemical Industries Ltd., Tokyo, Japan, was dissolved in ethanol with the highest purity, commercialized by Katayama Chemical Industries Co., Ltd., Osaka, Japan, to make into an ethanol solution with a vitamin D3 content of 3%. To eight grams of the powdery anhydrous cyclotetrasaccharide, prepared in Example 3, was added 1.5 ml of the above ethanol solution and the resulting mixture was pulverized similarly as in Example 20, dried under a reduced pressure, and made into a powdery vitamin D3 preparation containing cyclotetrasaccharide. […] About 0.3 gram each of the powdery vitamin D3 preparations containing any one of the above saccharides was made into a vitamin D3 tablet by pressurizing at 200 kg/cm^2 for two minutes using a tablet machine. Vitamin D3 tablets thus obtained were weighted and each one tablet of which was placed in a 20 ml-glass vial and sealed to obtain five kinds of vitamin D3 tablets containing a saccharide. The vials were preserved under a normal pressure at 60° C. and the amount of vitamin D3 remaining in the vials was examined just after preparation, after preserving for two hours, one day, two days, and seven days, respectively. The amount of vitamin D3 in each tablet was determined by: adding 10 ml of 70% aqueous ethanol solution to each vial containing any of the test samples; crushing the tablets using a glass rod before extracting vitamin D3; filling up the total volume to 50 ml with 70% aqueous ethanol solution; centrifuging the resulting solutions at 10,000 rpm for 10 minutes; filtrating the resulting supernatants; and measuring the absorbance at a wavelength of 265 nm for the resulting filtrates. The amount of vitamin D3 was calculated based on the absorbance coefficient (E1%) at a wavelength of 265 nm, which was regarded as 475. The amount of vitamin D3 (mg) per one gram of each of the vitamin D3 tablets and the residual vitamin D3 (%) was calculated based on the amount of vitamin D3 in the test samples just after preparation, which was regarded as 100%. The results are in Table

[3] = Preservation of powdery vitamin E preparations at 60° C., GC; type: physicochemical; conditions: for Amount of vitamin E: per one gram of vitamin E preparation
Protocol: Vitamin E (α-tocopherol) commercialized by Wako Pure Chemical Industries Ltd., Tokyo, Japan, was dissolved in ethanol (a special grade reagent, commercialized by Katayama Chemical Industries Co., Ltd., Osaka, Japan) to make into an ethanol solution with a vitamin E content of 10%. Ten grams of the powdery anhydrous cyclotetrasaccharide, prepared in Example 3, were placed in a glass mortar and then a small amount of […] was added to the cyclotetrasaccharide. Using a glass rod, the mixture was repeatedly mixed with additional ethanol or acetic acid until the mixture could not keep its powdery form. Thus, a vitamin E preparation was obtained. As controls, vitamin E preparations were prepared by using “ISOELITE P™”, a powdery branched cyclodextrin commercialized by Ensuiko Sugar Refining Co., Ltd., Tokyo, Japan, a powdery anhydrous crystalline α,α-trehalose prepared according to the method disclosed in Japanese Patent Kokai No. 213,283/95, “PINEFIBER™”, a powdery dextrin product commercialized by Matsutani Chemical Industries Co., Ltd., Hyogo, Japan, or a soluble starch commercialized by Katayama Chemical Industries Co., Ltd., Osaka, Japan, except for using cyclotetrasaccharide by the same procedure. Successively, each powdery vitamin E preparation was dried under a reduced pressure by keeping the preparation at ambient temperature for five hours in a desiccators containing (P2O5) to evaporate ethanol. About 0.5 gram each of the five powdery vitamin E preparations containing any one of those saccharides was weighted and placed in 20 ml-glass vials and sealed. […] The amount of vitamin E in each sample was determined by: adding 10 ml of ethanol to each of the vials containing the test samples; extracting vitamin E by shaking the resulting suspensions; centrifuging the suspensions at 10,000 rpm for 10 minutes; and measuring the amount of vitamin E in the resulting supernatants by gas-chromatography (GC). GC was carried out using “GC-14A”, a GL apparatus produced by Shimadzu Corporation, Kyoto, Japan, installed with “DB-1”, a column (internal diameter: 0.25 mm, length: 30 m) commercialized by Agilent Technologies, USA (former name; J & W Scientific, USA). The amount of vitamin E (mg) per one gram of a vitamin E preparation and the residual vitamin E (%) was calculated and expressed with a relative value, when the amount of vitamin E in each test sample just after its preparation was regarded as 100%, as shown in Table 11.

[4] = added lipid peroxide 2,4-decadienal
[5] = added lipid peroxide malondialdehyde (MDA)
[6] = just after its preparation (regarded as 100%)
[7] = 2,4-decadienal, listed as cyclotetrasaccharide
[8] = MDA, listed as cyclotetrasaccharide

| Structure (SMILES) | OLAARPs Formation: (%) ([1]; 2,4-decadienal) | Protein carbonyl Formation: (%) ([1]; 2,4-decadienal) | OLAARPs Formation: (%) ([1]; MDA) | Protein carbonyl Formation: (%) ([1]; MDA) | Formed OLAARPs [1, 4] [μmol/g-BSA] | Formed Protein carbonyl [1, 4] [μmol/g-BSA] | Formed OLAARPs [1, 5] [μmol/g-BSA] | Formed Protein carbonyl [1, 5] [μmol/g-BSA] | Residual D3 percentage (%) [2, 6] | Residual D3 percentage (%) ([2]; one day at 60° C.) | Amount of vitamin D3 ([2]; just after its preparation) [mg] | Amount of vitamin D3 ([2]; one day at 60° C.) [mg] | Amount of vitamin D3 ([2]; seven days at 60° C.) [mg] | Amount of vitamin D3 ([2]; two days at 60° C.) [mg] | Amount of vitamin D3 ([2]; two hours at 60° C.) [mg] | Residual D3 percentage (%) ([2]; seven days at 60° C.) | Residual D3 percentage (%) ([2]; two days at 60° C.) | Residual D3 percentage (%) ([2]; two hours at 60° C.) | Residual vitamin E (%) ([3]; 0 days (regarded as 100%)) | Residual vitamin E (%) ([3]; 1 day at 60° C.) | other results |
| --- | --- | --- | --- | --- | --- | --- | --- | --- | --- | --- | --- | --- | --- | --- | --- | --- | --- | --- | --- | --- | --- |
| OC[C@H]1O[C@H](O[C@H]2O[C@H](CO)[C@@H](O)[C@H](O)[C@H]2O)[C@H](O)[C@@H](O)[C@@H]1O [α, α-Trehalose, α, α-trehalose, reference compound] | (63) % | (58) % | (56) % | (60) % | 2.67 | 8.26 | 3.24 | 1.45 | (100) % | (24) % | 4.67 | 1.11 | 1.05 | 1.02 | 1.58 | (22) % | (22) % | (34) % | (100) % | (99) % | Residual vitamin E (%) ([3]; 3 days at 60° C.): (85) %; Residual vitamin E (%) ([3]; 7 days at 60° C.): (73) %; Residual vitamin E (%) ([3]; 14 days at 60° C.): (41) %; Amount of vitamin E ([3]; 0 days at 60° C.): 36.7 mg; Amount of vitamin E ([3]; 1 day at 60° C.): 36.2 mg; Amount of vitamin E ([3]; 3 days at 60° C.): 31.0 mg; Amount of vitamin E ([3]; 7 days at 60° C.): 26.6 mg; Amount of vitamin E ([3]; 14 days at 60° C.): 15.1 mg |
| OCC1OC2OCC3O[C@H](O[C@H]4C(O)C(CO)OC(OCC5O[C@H](O[C@@H](C1O)C2O)C(O)C(O)[C@@H]5O)C4O)C(O)C(O)[C@@H]3O (stereo partly drawn) [Cyclotetrasaccharide, cyclo{→6}-α-D-glucopyranosyl-(1→3)-α-D-glucopyranosyl-(1→6)-α-D-glucopyranosyl-(1→3)-α-D-glucopyranosyl-(1→}] | (69) % | (45) % | (80) % | (45) % | 2.92 | 6.34 | 4.68 | 1.09 | (100) % | (66) % | 5.27 | 3.49 | 2.65 | 2.91 | 4.57 | (50) % | (55) % | (87) % | (100) % | (98) % | OLAARPs Formation: (%) [1, 7]: about 69%; Protein carbonyl Formation: (%) [1, 7]: about 45%; OLAARPs Formation: (%) [1, 8]: about 80%; Protein carbonyl Formation: (%) [1, 8]: about 45%; Residual D3 percentage (%) ([2]; seven days at 60° C., listed as cyclotetrasaccharide): 90%; Residual vitamin E (%) ([3]; 3 days at 60° C.): (95) %; Residual vitamin E (%) ([3]; 7 days at 60° C.): (90) %; Residual vitamin E (%) ([3]; 14 days at 60° C.): (61) %; Amount of vitamin E ([3]; 0 days at 60° C.): 75.9 mg; Amount of vitamin E ([3]; 1 day at 60° C.): 74.4 mg; Amount of vitamin E ([3]; 3 days at 60° C.): 72.0 mg; Amount of vitamin E ([3]; 7 days at 60° C.): 68.5 mg; Amount of vitamin E ([3]; 14 days at 60° C.): 46.3 mg |
